How the values were obtained:
Format in all cases: cell-based
[1] = system: S100A7; test: RT-qPCR gene expression of innate immunity marker S100A7 in normal human epidermal keratinocytes; conditions: 1.5 mM, 48 h incubation, three donors
Method: (§1) The purpose of this study is to evaluate the effects of the bacterial extract according to the invention on the gene expression of normal human epidermal keratinocytes by an RT-PCR technique on two genes related to innate immunity.
(§2) The study is carried out on normal human epidermal keratinocytes from three donors. These cells are used at their third passage. These cells are cultured in a standard medium supplemented with epidermal growth factor (EGF), pituitary extract (PE) and gentamycin, using conventional laboratory procedures.
(§3) The bacterial extract according to the invention is tested at three concentrations: 0.4, 2 and 10 μg/ml (μg/ml protein).
(§4) At the same time, calcium chloride is tested at 1.5 mM as reference product.
(§5) The keratinocytes are seeded in 24-well plates (50,000 cells per well) and cultured for 24 hours in a culture medium. […]
(§6) The expression of markers is analyzed by the RT-qPCR method on total RNA extracted from the cells under each condition. […] The quantity and quality of RNA are evaluated by capillary electrophoresis. cDNA is synthesized by reverse transcription of total RNA in the presence of oligo(dT) and Transcriptor Reverse Transcriptase. […]
(§7) Fluorescence incorporation into amplified DNA is continuously measured during PCR cycles. […]
(§8) The parameter RQ (relative quantification) is defined as the relative expression/100. […]

[2] = system: HBD2; test: RT-qPCR gene expression of innate immunity marker HBD2 in normal human epidermal keratinocytes; conditions: 1.5 mM, 48 h incubation, three donors
Method: as §1, §2, §3, §4, §5, §6, §7, §8

[3] = system: IL-1β; test: IL-1β release by human epidermal keratinocytes activated by substance P (ELISA)
Method: (§9) The purpose of this study is to evaluate the modulatory properties of the bacterial extract according to the invention in skin inflammation. To that end, an in vitro experimental approach based on the measurement of production and release of tumor necrosis factor-alpha (TNF-α) and interleukin-1 beta (IL-1β) by human epidermal keratinocytes, activated by substance P, is proposed as an in vitro model of cutaneous neurogenic inflammation. The study is carried out on normal human epidermal keratinocytes; these cells are obtained from newborn foreskin. These cells are cultured in a serum-free medium using conventional laboratory procedures. The determination of markers of cutaneous neurogenic inflammation is carried out on these keratinocytes cultured in a medium in the absence (control condition) or in the presence of the compounds to be tested (bacterial extract according to the invention and reference product), and optionally exposed to substance P. The keratinocytes are treated 3 hours before the stress induced by substance P and during the following 24 hours. Levels of proinflammatory cytokines (TNF-α and IL-1β) are quantified 24 h after the induction of inflammatory stress by the addition of substance P (0.5 μM). […] TNF-α and IL-1β productions are measured in the incubation media and quantified by the enzyme-linked immunosorbent assay (ELISA).

[4] = system: TNF-α; test: TNF-α release by human epidermal keratinocytes activated by substance P (ELISA)
Method: as §9

[5] = 1 μM, keratinocytes treated 3 h before and 24 h during substance P (0.5 μM)

SMILES: [Ca+2].[Cl-].[Cl-] [Calcium chloride, calcium chloride]
- S100A7 gene expression, Mean (multiplicative factor, RQ vs control) [1]: 4.1
- S100A7 gene expression, Mean (multiplicative factor, RQ vs control) ([1]; listed as calcium chloride): strong expression
- HBD2 gene expression, Mean (multiplicative factor, RQ vs control) [2]: 5.8
- HBD2 gene expression, Mean (multiplicative factor, RQ vs control) ([2]; listed as calcium chloride): strong expression

SMILES: COc1ccccc1CN[C@H]1C2CCN(CC2)[C@H]1C(c1ccccc1)c1ccccc1 [NK-1R inh, CP96345]
- IL-1β mean [3, 5]: 132.5 pg/mL
- inhibition at 1 µM ([3]; Homo sapiens, Keratinocyte, versus Cont SP(+), substance P 0.5 μM, 24 h, read-out: IL-1β % Inh): 91%
- TNF-α mean [4, 5]: 4.6 pg/mL
- inhibition at 1 µM ([4]; Homo sapiens, Keratinocyte, versus Cont SP(+), substance P 0.5 μM, 24 h, read-out: TNF-α % Inh): 90%
